This note sets out measurements from patent publication US20240382508A1, “REGENERATIVE AGENT FOR BONE TISSUE AND LUNG TISSUE, AND PHARMACEUTICAL COMPOSITION FOR REGENERATING BONE TISSUE AND LUNG TISSUE” (NIIGATA UNIVERSITY, priority 2021, published 2024).

For test [1], the system named is rheumatoid arthritis model mice. The experiment in a line: rheumatoid arthritis (CAIA) model, microCT of hind limb. The test is classed as in vivo, mouse. Here is the method: Rheumatoid arthritis (CAIA) (a collagen antibody-administered arthritis-inducing cocktail manufactured by Chondrex, Inc. was used, and the details of the production method were performed according to the protocol provided by Iwai Chemicals Co., Ltd.) was induced by using 6-week-old wild-type mice (N=4, male C57BL/6N mice, manufactured by CLEA Japan, Inc.) and 6-week-old DEL-1-deficient mice (N=4, male C57BL/6N mice (manufactured by CLEA Japan, Inc.), the method for producing the deficient mice was as described in Non Patent Document 1), and erythromycin (10 mg/kg) was intraperitoneally administered once every 3 days from the 1st day after the induction. Regarding the DEL-1-deficient mice, a group in which DEL-1 (10 μg) was administered through the tail vein once every 3 days from the 1st day after the CAIA induction, was also prepared. Nine days after the administration, the hind limb of each mouse was examined by microCT.

Test [2] relates to osteoblasts. The experiment in a line: bone nodule measurement in osteoblasts (Alizarin red S). The settings on record: for formation of bone nodules (FIG. 1): erythromycin 10 μg/mL. It is filed as cell-based, mouse. Here is the method: Next, from the cranial bones of 3-day-old wild-type mice (N=6, male C57BL/6N mice, manufactured by CLEA Japan, Inc.) and 3-day-old DEL-1-deficient mice (N=6, male C57BL/6N mice (manufactured by CLEA Japan, Inc.), a method for producing the deficient mice was as described in Non Patent Document 1), osteoblasts were isolated by allowing 0.1% by mass of type 1 collagenase and 0.2% by mass of dispase to act at 37° C. for 20 minutes, and the cells were cultured in α-MEM and a bone differentiation medium (containing 50 μg/ml ascorbic acid and 10 mM β-glycerol 2-phosphate). Ethanol (final concentration 0.1% by mass) and erythromycin (10 μg/mL) were added into the medium in which the osteoblasts (1×10^4 cells/mL) derived from the wild-type mice or the DEL-1-deficient mice were cultured. The medium was exchanged every 3 days, and after 15 days, the cells were stained with Alizarin red S, followed by performing of bone nodule measurement.
(§1) Next, the proportion (%) of bone nodules with respect to the observation region in the above-described osteoblasts was calculated from microscopic images by using image processing software (NIH Image). In addition, RNA was extracted from each of the osteoblasts by using an RNeasy Kit (manufactured by QIAGEN NV), subsequently cDNA was synthesized by using a cDNA synthesis kit (manufactured by Thermo Fisher Scientific, Inc.), and the relative expression levels of RUNX2 mRNA, Sp7 mRNA, and Bglap mRNA, which are important for bone regeneration, were checked by an RT-PCR method (Quantstudio3, Thermo Fisher Scientific, Inc.). Regarding primers, designed primers manufactured by Thermo Fisher Scientific, Inc. were used. The Assay IDs of the primers used are shown below.
(Bone regeneration-inducing effect 2 by various macrolide antimicrobial agents) From the cranial bones of 3-day-old wild-type mice (N=6, male C57BL/6N mice, manufactured by CLEA Japan, Inc.), osteoblasts were isolated by allowing 0.1% by mass of type 1 collagenase and 0.2% by mass of dispase to act at 37° C. for 20 minutes, and the cells were cultured in α-MEM and a bone differentiation medium (containing 50 μg/ml ascorbic acid and 10 mM β-glycerol 2-phosphate). Ethanol (final concentration 0.1% by mass), or erythromycin, clarithromycin, or azithromycin (10 μg/mL each) was added into the medium in which the osteoblasts (1×10^4 cells/mL) derived from the wild-type mice were cultured. The medium was exchanged every 3 days, and after 15 days, the cells were stained with Alizarin red S, followed by performing of bone nodule measurement. The results are shown in FIG. 11 In FIG. 11, the symbol * indicates p<0.05, and the symbol ** indicates p<0.01. In addition, the control is an ethanol (final concentration 0.1% by mass)-added group.

The subject of test [3] is RUNX2 mRNA, Sp7 mRNA, and Bglap mRNA. The experiment in a line: RT-PCR of bone regeneration genes in osteoblasts. The test is classed as cell-based, mouse. The note with it: osteoblasts derived from wild-type mice. As to the method: as §1

Take `CC[C@H]1OC(=O)[C@H](C)[C@@H](O[C@H]2C[C@@](C)(OC)[C@@H](O)[C@H](C)O2)[C@H](C)[C@@H](O[C@@H]2O[C@H](C)C[C@H](N(C)C)[C@H]2O)[C@](C)(O)C[C@@H](C)C(=O)[C@H](C)[C@@H](O)[C@]1(C)O` [erythromycin]: the “bone destruction (FIG. 6)” value is listed as “bone destruction was not suppressed” in test [1] (DEL-1-deficient mice, erythromycin 10 mg/kg intraperitoneally or DEL-1 10 μg tail vein once every 3 days) and “bone destruction was suppressed” in test [1] (wild-type mice, erythromycin 10 mg/kg intraperitoneally once every 3 days). The “proportion of bone nodules (FIG. 2)” value is given as “an increase in the proportion of bone nodules was not recognized” in test [2] (osteoblasts derived from DEL-1-deficient mice) and “significant increases in the proportion of bone nodules was recognized” in test [2] (osteoblasts derived from wild-type mice). For the same molecule, the “formation of bone nodules (FIG. 1)” value in test [2] (osteoblasts derived from DEL-1-deficient mice, 15 days) is given as “the formation of bone nodules was not recognized”; in test [2] (osteoblasts derived from wild-type mice, 15 days), “the formation of bone nodules was recognized”. Besides, the “formation of bone nodules (FIG. 11)” value in test [2] (osteoblasts derived from wild-type mice, 10 μg/mL each, 15 days) is recorded as “the formation of bone nodules was recognized”. Besides, the “expression of Bglap mRNA” value in test [3] is on record as “increases in the expression”. The “expression of RUNX2 mRNA” value in test [3] is “increases in the expression”. In test [3], the “expression of Sp7 mRNA” value was “increases in the expression”.
